Laboratory results as given in US11617753B2 (priority 2016, dated 2023).
Where a name gives a salt, the structure may show the parent alone. Read-outs that look alike come from different tables or passages of the source.

Assays:
Ebola L polymerase [1] = target: T1, Ebola L polymerase (Zaire ebolavirus, UniProt Q05318); format: cell-based, Ebola virus; conditions: 15 μM
Huh7 cells = conditions: human
Ebola L polymerase [2] = target: T1, Ebola L polymerase; assay: cell-based; design: species or system Ebola virus
EBOV-Mak = assay: microbe, parasite or virus in culture; format: cell-based; conditions: Zaire ebolavirus, Huh-7, read-out: IC50, inhibition of Ebola infectivity
Ebola VP40 protein [3] = target: T2, Ebola VP40 protein (Zaire ebolavirus, UniProt Q05128); format: cell-based, Ebola virus
Ebola VP40 protein [4] = target: T2, Ebola VP40 protein; format: cell-based, Ebola virus; remark: listed apart in the source

T1 sequence (Q05318 whole entry, looked up): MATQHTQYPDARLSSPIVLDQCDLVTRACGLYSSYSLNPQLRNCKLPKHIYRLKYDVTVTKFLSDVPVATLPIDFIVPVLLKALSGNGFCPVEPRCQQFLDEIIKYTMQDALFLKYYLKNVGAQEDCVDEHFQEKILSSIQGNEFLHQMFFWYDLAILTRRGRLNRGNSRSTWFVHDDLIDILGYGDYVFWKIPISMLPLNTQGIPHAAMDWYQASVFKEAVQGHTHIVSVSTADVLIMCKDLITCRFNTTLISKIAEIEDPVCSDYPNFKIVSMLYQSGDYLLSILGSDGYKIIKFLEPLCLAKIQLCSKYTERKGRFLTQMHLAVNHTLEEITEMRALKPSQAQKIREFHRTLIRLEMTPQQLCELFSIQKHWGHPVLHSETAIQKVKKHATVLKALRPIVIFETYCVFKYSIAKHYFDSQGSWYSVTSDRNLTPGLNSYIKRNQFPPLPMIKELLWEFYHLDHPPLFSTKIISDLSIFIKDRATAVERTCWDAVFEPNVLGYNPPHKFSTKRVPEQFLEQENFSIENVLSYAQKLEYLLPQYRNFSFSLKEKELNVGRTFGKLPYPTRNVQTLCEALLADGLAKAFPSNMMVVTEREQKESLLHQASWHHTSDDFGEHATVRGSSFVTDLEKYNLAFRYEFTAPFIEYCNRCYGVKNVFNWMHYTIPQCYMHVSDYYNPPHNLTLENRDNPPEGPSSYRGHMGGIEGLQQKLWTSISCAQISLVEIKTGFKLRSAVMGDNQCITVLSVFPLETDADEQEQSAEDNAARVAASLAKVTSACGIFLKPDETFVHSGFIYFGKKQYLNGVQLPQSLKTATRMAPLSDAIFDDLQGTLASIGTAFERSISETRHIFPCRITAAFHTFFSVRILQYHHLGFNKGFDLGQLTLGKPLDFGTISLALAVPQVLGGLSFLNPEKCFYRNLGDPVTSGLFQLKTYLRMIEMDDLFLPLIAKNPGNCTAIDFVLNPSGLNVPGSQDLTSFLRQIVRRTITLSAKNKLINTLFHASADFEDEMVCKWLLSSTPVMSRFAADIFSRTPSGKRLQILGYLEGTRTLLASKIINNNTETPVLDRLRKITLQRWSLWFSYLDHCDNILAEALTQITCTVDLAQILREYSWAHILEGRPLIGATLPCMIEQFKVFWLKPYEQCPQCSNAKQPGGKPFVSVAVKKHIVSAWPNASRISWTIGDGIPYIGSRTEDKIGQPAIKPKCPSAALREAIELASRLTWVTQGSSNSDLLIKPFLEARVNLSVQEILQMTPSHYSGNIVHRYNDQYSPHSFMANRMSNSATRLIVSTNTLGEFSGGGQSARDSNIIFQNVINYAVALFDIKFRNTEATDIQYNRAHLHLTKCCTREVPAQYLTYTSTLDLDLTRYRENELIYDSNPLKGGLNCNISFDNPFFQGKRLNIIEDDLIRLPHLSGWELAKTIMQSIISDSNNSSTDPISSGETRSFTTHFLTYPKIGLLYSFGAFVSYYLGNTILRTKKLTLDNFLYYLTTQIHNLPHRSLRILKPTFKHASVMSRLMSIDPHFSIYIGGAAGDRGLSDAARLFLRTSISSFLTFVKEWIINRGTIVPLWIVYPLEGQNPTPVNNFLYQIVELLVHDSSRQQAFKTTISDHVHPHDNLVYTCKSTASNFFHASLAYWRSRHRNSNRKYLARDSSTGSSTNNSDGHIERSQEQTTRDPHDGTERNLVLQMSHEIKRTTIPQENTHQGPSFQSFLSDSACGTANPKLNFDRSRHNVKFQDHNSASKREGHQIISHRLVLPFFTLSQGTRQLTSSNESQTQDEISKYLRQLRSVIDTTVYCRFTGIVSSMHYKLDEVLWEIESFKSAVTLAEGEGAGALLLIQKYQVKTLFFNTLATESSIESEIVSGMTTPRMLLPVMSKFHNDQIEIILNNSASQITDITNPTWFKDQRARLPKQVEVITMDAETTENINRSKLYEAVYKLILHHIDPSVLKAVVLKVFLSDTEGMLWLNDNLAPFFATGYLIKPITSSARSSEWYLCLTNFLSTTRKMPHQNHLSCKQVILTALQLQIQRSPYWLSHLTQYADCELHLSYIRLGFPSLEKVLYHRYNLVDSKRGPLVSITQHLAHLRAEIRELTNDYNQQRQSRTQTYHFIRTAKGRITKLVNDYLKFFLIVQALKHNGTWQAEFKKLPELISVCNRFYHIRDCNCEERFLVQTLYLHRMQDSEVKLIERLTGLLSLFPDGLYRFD
T2 sequence (Q05128 whole entry, looked up): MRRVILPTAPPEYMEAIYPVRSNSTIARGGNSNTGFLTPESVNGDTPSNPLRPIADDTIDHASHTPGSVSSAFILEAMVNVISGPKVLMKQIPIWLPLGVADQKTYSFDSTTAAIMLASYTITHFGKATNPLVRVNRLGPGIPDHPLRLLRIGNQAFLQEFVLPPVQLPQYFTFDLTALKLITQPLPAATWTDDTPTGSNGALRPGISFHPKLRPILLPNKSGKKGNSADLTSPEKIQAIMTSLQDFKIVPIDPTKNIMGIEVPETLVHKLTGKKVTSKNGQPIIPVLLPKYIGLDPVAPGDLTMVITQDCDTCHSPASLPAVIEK

Row | SMILES | % EGFP signal (Ebola L polymerase [1]; hydrochloride) [%] | % mCherry signal (Ebola L polymerase [1]; hydrochloride) [%] | 50% cytotoxicity concentration (Huh7 cells) [nM] | IC50 (Ebola L polymerase [2]) [µM] | IC50 (EBOV-Mak) [µM] | EGFP fluorescent signal, % of solvent control signal, dose-response (Ebola VP40 protein [3]) | concentration at which VLP formation in the cell is prevented (shift in membrane associated VP40) (Ebola VP40 protein [3]) | VLP isolated (western blot for VP40) (Ebola VP40 protein [4]; 50 nM) | VLP isolated (western blot for VP40) (Ebola VP40 protein [4]; 500 nM) | % EGFP signal (Ebola L polymerase [1]) [%] | % mCherry signal (Ebola L polymerase [1]) [%]
1 | NC(=O)c1cn([C@@H]2O[C@H](CO)[C@@H](O)[C@H]2O)c2ncnc(N)c12 [sangivamycin HCl, 4-amino-7-((2R,3R,4S,5R)-3,4-dihydroxy-5-(hydroxymethyl)tetrahydrofuran-2-yl)-7H-pyrrolo[2,3-d]pyrimidine-5-carboxamide (sangivamycin) hydrochloride] | 20 | 10 |  |  |  |  |  |  |  |  | 
2 | NC(=O)c1cn([C@@H]2O[C@H](CO)[C@@H](O)[C@H]2O)c2ncnc(N)c12 [sangivamycin, 4-amino-7-((2R,3R,4S,5R)-3,4-dihydroxy-5-(hydroxymethyl)tetrahydrofuran-2-yl)-7H-pyrrolo[2,3-d]pyrimidine-5-carboxamide] |  |  | > 600 | 0.03 | ~0.1 | largest decrease in signal | above 37.5 nM | clear reduction in VLP | drastic reduction in VLP | 27 | 4
